Measured values taken from US9957264B2 (Merck Sharp & Dohme Corp., priority 2013, dated 2018).

Legend:
[1] = biological target: JAK1 (recombinant purified GST-tagged catalytic domain) (Homo sapiens (Human), UniProt P23458); assay: Jak Biochemical HTRF Assay (JAK1); details: [ATP] 31.8 μM
In short: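 Read-out is the 665/615 nm time-resolved FRET ratio from Eu-pY20 antibody and streptavidin-Dylight 650 bound to phosphorylated biotin-peptide. Reactions ran 120 min at room temperature after ATP start. Inhibition normalized to untreated controls gave IC50 via 4-parameter fit.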

[2] = biological target: JAK2 (recombinant purified GST-tagged catalytic domain) (Homo sapiens (Human), UniProt O60674); assay: Jak Biochemical HTRF Assay (JAK2); details: [ATP] 8.5 μM
JAK2 (recombinant purified GST-tagged catalytic domain), sequence (O60674 849-1124): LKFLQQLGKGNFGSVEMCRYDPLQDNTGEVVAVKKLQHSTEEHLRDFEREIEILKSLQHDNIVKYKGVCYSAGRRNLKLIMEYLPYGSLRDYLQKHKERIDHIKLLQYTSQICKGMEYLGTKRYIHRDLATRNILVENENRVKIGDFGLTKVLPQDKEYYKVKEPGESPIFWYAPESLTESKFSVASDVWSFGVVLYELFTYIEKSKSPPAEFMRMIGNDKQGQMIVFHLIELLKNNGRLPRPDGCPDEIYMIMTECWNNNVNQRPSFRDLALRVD

JAK1 (recombinant purified GST-tagged catalytic domain), sequence (P23458 875-1153): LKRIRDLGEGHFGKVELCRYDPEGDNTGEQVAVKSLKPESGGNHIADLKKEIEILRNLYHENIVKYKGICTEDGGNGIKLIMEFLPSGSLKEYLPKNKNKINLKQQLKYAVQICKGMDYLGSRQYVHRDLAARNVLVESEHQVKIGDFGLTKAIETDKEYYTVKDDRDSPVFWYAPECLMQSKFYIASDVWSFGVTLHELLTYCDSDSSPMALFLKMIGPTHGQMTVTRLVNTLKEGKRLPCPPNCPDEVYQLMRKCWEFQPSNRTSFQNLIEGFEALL

IC50 [1] [nM] | IC50 [2] [nM] | SMILES
0.18 | 0.66 | COC(=O)N1CCC(CC#N)(n2nc(Nc3ccc4c(c3)CCC4(O)C(F)(F)F)c3c(=O)[nH]ccc32)CC1 (single isomer, unassigned) [Example 5-143, (R or S)-methyl 4-(cyanomethyl)-4-(3-((1-hydroxy-1-(trifluoromethyl)-2,3-dihydro-1H-inden-5-yl)amino)-4-oxo-4,5-dihydro-1H-pyrazolo[4,3-c]pyridin-1-yl)piperidin-1-carboxylate]
0.09 | 0.08 | Cc1cc(Nc2nn([C@]3(CC#N)CCOC[C@@H]3F)c3cc[nH]c(=O)c23)ccc1C(=O)N1CCSCC1 (single isomer, unassigned) [Example 5-262, 2-((3R,4R or 3S,4S)-3-fluoro-4-(3-((3-methyl-4-(thiomorpholine-4-carbonyl)phenyl)amino)-4-oxo-4,5-dihydro-1H-pyrazolo[4,3-c]pyridin-1-yl)tetrahydro-2H-pyran-4-yl)acetonitrile]
1.08 | 12 | CN(C)S(=O)(=O)c1ccc(Nc2nn(C3(CC#N)CCN(C(=O)c4ccc(Cl)cc4)CC3)c3cc[nH]c(=O)c23)cc1 [Example 9-13, 4-[(1-{1-[(4-chlorophenyl)carbonyl]-4-(cyanomethyl)piperidin-4-yl}-4-oxo-4,5-dihydro-1H-pyrazolo[4,3-c]pyridin-3-yl)amino]-N,N-dimethylbenzenesulfonamide]
0.39 | 0.99 | CC1CN(S(=O)(=O)c2ccc(Nc3nn([C@]4(CC#N)CCCOC4)c4cc[nH]c(=O)c34)cc2)C1 [Example 5-106, {(3S)-3-[3-({4-[(3-methylazetidin-1-yl)sulfonyl]phenyl}amino)-4-oxo-4,5-dihydro-1H-pyrazolo[4,3-c]pyridin-1-yl]tetrahydro-2H-pyran-3-yl}acetonitrile]
